The values that follow come from publication PMC9078399, “Discovery of N-cyclobutylaminoethoxyisoxazole derivatives as novel sigma-1 receptor ligands with neurite outgrowth efficacy in cells” (RSC Advances, 2018).

One assay deals with T1, σ1 receptor (Cavia porcellus, UniProt Q60492).
T1 construct: σ1 receptor, [^3H]-(+)-pentazocine, Guinea pig brain homogenate; from tissue; host or cells: Guinea pig brain homogenate
Kind of assay: Radioligand binding at σ1 receptor ([3H]-(+)-pentazocine, NIMH PDSP). Set-up: species or system Guinea pig. Conditions: for Ki: [3H]-(+)-pentazocine, Guinea pig brain homogenate, mean ± SEM, three independent experiments; for Selectivity (Ki σ2/Ki σ1): ratio of Ki σ2 to Ki σ1. An excerpt: (§1) In this study, [^3H] pentazocine and [^3H]DTG (6) were used as the radioligands at σ1 and σ2 receptors. Firstly, we examined the effects of changing the substituents on the benzene ring. […] Mono-halogen substitution on the benzene ring exemplified by compounds 17–20 generally retained affinity for σ1 receptor compared with compound 7. […] The derivatives 21–25 also maintained similar high affinities for the σ1 receptor upon incorporation of two halogen atoms on the benzene ring. However, this is also accompanied with higher binding affinity to the σ2 receptor. […]. Next, we examined the effects of removing the methyl group on the basic nitrogen atom. […] […]. […] The results for the secondary amines 28 and 29 indicate that the hydrogen bond donor on basic nitrogen atom was beneficial for increased binding affinity to the σ1 receptor.
(§2) Radioligand competition studies were carried out by the National Institute of Mental Health's Psychoactive Drug Screening Program, Contract #HHSN-271-2008-00025-C (NIMH PDSP). The general procedures are listed as follows:
(§3) All the test compounds solution (1 mg mL^−1) were prepared by dissolving in DMSO or buffer solvent (50 mM Tris–HCl, pH = 8.0). The filter-mats were presoaked in 0.5% aqueous polyethyleneimine solution for 2 h at rt before use. All binding experiments were carried out in poly-L-lysine-coated 96-well plate and the final test concentration (50 μM, 5 μM, 1.5 μM, 500 nM, 150 nM, 50 nM, 15 nM, 5 nM, 1.5 nM, 0.5 nM, 0.05 nM) were prepared by addition of Tris–HCl solution (50 mM, pH = 8.0). The following specific radioligands and tissue source were used: (a) σ1 receptor, [^3H]-(+)-pentazocine, Guinea pig brain homogenate; (b) σ2 receptor, [^3H]-DTG, PC-12 cells. 100 μL of corresponding radioligand solution, 100 μL test compound solution and 50 μL of the respective receptor preparation into each well of the plate (total volume 250 μL). During the incubation, the plates were shaken at a speed of 500–600 rpm at the specified temperature (σ1 receptor, 37 °C, 150 min; σ2 receptor, rt, 120 min). The incubation was followed by a rapid vacuum filtration through Whatman GF/B glass filters, and the filtrates were washed twice with 10 mL of cold buffer and transferred to the 6 mL scintillation vials. EcoScint scintillation fluid (4.0 mL) was added, and the radioactivity bound was measured using a Beckman LS 6500 liquid scintillation counter. All experiments were performed at least three times.
(§4) For experimental details please refer to the PDSP website http://pdsp.med.unc.edu/.[28]

Another assay addresses T2, σ2 receptor (Rattus norvegicus, UniProt Q5U3Y7).
T2 construct: (b) σ2 receptor, [^3H]-DTG, PC-12 cells; endogenous in cells; host or cells: PC-12 cells
T2 sequence (Q5U3Y7 1-176): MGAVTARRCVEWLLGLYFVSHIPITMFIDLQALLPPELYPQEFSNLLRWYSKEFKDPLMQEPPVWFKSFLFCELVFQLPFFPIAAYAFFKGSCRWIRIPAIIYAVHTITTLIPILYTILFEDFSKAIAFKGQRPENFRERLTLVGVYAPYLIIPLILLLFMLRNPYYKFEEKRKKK
Kind of assay: Radioligand binding at σ2 receptor ([3H]-DTG, NIMH PDSP). The note with it: for Ki: [3H] DTG, PC12 cells, mean ± SEM, three independent experiments.
Text: as §1, §2, §3, §4

Another assay relates to N1E-115 neuronal cells. Kind of assay: Neurite outgrowth in N1E-115 cells. The note with it: 10 μM in DMSO, four days, vs. vehicle (DMSO). In kind it is cell-based, mouse. As to the method: Following the radioligand binding studies and CNS MPO calculations, all of the synthesized derivatives were further tested in cellular neuritogenesis studies. In this study, N1E-115 neuronal cells were used as a screening platform for assessing the neuritogenesis effects of candidate compounds.[31,32] All the derivatives and positive control (compound 7 and RC-33) were assessed at 10 μM concentration in DMSO, and vehicle group using DMSO alone.
N1E-115 cells, the mouse neuroblastoma cell lines, were obtained from the American Type Culture Collection (ATCC, Manassas, VA, USA). Undifferentiated N1E115 cells were cultured in DMEM complete medium with 10% fetal bovine serum, 100 U mL^−1 of penicillin, and 100 μg mL^−1 of streptomycin and maintained at 37 °C in a humidified incubator supplemented with 5% CO2. N1E-115 cells were seeded at a density of 1 × 10^4 cells per mL on poly-L-lysine-coated 96-well plates and grown with DMSO or different tested compounds (10 μM) in DMSO solution for four days. Four days after incubation, morphometric analysis was performed on digitized images of live cells taken under phase contrast illumination with an inverted microscope linked to a camera. Images of five fields per well were taken with an average of 100 cells per field. Cells that had at least one neurite with a length that was twice as long as the body diameter were expressed as a percentage of the total cells in the field. The counting was performed in a blinded manner. All experiments were performed at least five times.

Assay [1] has as its target DAT: dopamine transporter (Homo sapiens, UniProt Q01959). The experiment in a line: Radioligand binding at DAT ([3H] WIN35428). As to the method: In order to exclude the potential interference of other receptor pathways to the observed neuritogenesis efficacy, we assessed the binding affinities of compounds 7, 18, 22, 24, 25, 28 and 29 at the biogenic amine transporters (NET, DAT, and SERT).
as §2, §4

Structures are written as SMILES. Entries after “also recorded” stand apart in the source; their conditions may differ.

T1 sequence (Q60492 whole entry): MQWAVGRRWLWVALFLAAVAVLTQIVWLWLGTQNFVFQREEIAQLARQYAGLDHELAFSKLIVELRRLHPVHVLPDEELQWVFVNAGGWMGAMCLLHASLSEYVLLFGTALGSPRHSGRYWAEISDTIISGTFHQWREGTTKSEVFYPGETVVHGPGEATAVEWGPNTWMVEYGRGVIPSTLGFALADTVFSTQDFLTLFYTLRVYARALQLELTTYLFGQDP
Chain of DAT: dopamine transporter (Q01959 whole entry): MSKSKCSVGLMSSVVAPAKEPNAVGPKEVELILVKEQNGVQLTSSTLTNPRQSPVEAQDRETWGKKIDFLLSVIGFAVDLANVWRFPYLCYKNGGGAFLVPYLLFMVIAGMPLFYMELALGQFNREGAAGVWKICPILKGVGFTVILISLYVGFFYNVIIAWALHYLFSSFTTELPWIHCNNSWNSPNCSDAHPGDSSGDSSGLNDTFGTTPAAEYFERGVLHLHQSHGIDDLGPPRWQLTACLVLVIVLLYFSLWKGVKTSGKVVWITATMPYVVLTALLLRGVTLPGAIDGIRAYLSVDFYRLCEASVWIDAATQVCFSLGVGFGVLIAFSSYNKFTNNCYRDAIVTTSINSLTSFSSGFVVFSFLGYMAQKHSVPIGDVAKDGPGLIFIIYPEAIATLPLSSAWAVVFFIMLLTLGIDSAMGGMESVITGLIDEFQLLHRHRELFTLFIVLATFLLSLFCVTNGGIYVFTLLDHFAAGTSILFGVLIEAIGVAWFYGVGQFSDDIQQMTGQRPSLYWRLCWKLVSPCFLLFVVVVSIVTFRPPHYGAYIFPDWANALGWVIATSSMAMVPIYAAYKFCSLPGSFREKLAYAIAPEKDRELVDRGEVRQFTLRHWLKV

On to `Cc1cccc(OCc2cc(OCCN(C)C3CCC3)no2)c1.Cl` [Compound 27, N-Methyl-N-(2-((5-((m-tolyloxy)methyl)isoxazol-3-yl)oxy)ethyl)cyclobutanamine hydrochloride], for which the Ki at σ1 receptor was found to be 4.2 ± 1.9 nM; on σ2 receptor it was 124 ± 68 nM. The “Selectivity (Ki σ2/Ki σ1)” value on σ1 receptor worked out at 29.5. For the same compound, the “Increase of binding affinity for σ2 receptor relative to compound 7” value at σ2 receptor (compared with parent compound 7) is given as 3 fold.
Consider `CN(CCOc1cc(COc2ccc(Cl)c(Cl)c2)on1)C1CCC1.Cl` [Compound 23, N-(2-((5-((3,4-Dichlorophenoxy)methyl)isoxazol-3-yl)oxy)ethyl)-N-methylcyclobutanamine hydrochloride], for which the Ki was 3.2 ± 1.6 nM at σ1 receptor and 36 ± 9.7 nM on σ2 receptor. Further, the “Selectivity (Ki σ2/Ki σ1)” value on σ1 receptor came out at 11.
The corresponding values for `CN(CCOc1cc(COc2ccc(Br)cc2)on1)C1CCC1.Cl` [Compound 20, N-(2-((5-((4-Bromophenoxy)methyl)isoxazol-3-yl)oxy)ethyl)-N-methyl-cyclobutanamine hydrochloride] are 5.5 ± 1.3 nM, 86.6 ± 16.8 nM and 16.
Turning to `CN(CCOc1cc(COc2cccc(Br)c2)on1)C1CCC1.Cl` [Compound 19, N-(2-((5-((3-Bromophenoxy)methyl)isoxazol-3-yl)oxy)ethyl)-N-methylcyclobutanamine hydrochloride], the Ki worked out at 0.8 ± 0.1 nM on σ1 receptor and 105 ± 21 nM at σ2 receptor. The “Selectivity (Ki σ2/Ki σ1)” value at σ1 receptor is 131.
In the same order, the values of `CN(CCOc1cc(COc2cccc(F)c2)on1)C1CCC1.Cl` [Compound 17, N-(2-((5-((3-Fluorophenoxy)methyl)isoxazol-3-yl)oxy)ethyl)-N-methylcyclobutanamine hydrochloride] are 1.9 nM, 91.5 ± 7.5 nM and 48.
The corresponding values for `Cl.c1ccc(OCc2cc(OCCN(C3CCC3)C3CCC3)no2)cc1` [Compound 30, N-Cyclobutyl-N-(2-((5-(phenoxymethyl)isoxazol-3-yl)oxy)ethyl)cyclobutanamine hydrochloride] are 16 ± 5 nM, 53.5 ± 0.5 nM and 3.3.
The corresponding values for `CN(CCOc1cc(COc2ccc(F)c(F)c2)on1)C1CCC1.Cl` [Compound 21, N-(2-((5-((3,4-Difluorophenoxy)methyl)isoxazol-3-yl)oxy)ethyl)-N-methylcyclobutanamine hydrochloride] are 1.7 ± 0.3 nM, 153 ± 37 nM and 90.
As for `CN(CCOc1cc(COc2ccc(F)cc2)on1)C1CCC1.Cl` [Compound 18, N-(2-((5-((4-Fluorophenoxy)methyl)isoxazol-3-yl)oxy)ethyl)-N-methylcyclobutanamine hydrochloride], the “Neurite outgrowth (neuritogenesis) effect” value in the assay with N1E-115 neuronal cells is “preferable neurite outgrowth effects compared to the parent compound 7 and positive control RC-33; also recorded: significant neuritogenesis effects”. For the same compound, the inhibition constant (Ki) was found to be 0.9 ± 0.1 nM at σ1 receptor, 78.5 ± 19.5 nM at σ2 receptor and 5630 nM in assay [1]. Also, the “Selectivity (Ki σ2/Ki σ1)” value at σ1 receptor is given as 87.
For the compound `CN(CCOc1cc(COc2cccc(C(F)(F)F)c2)on1)C1CCC1.Cl` [Compound 26, N-Methyl-N-(2-((5-((3-(trifluoromethyl)phenoxy)methyl)isoxazol-3-yl)oxy)ethyl)cyclobutanamine hydrochloride], the “Neurite outgrowth (neuritogenesis) effect” value in the assay on N1E-115 neuronal cells is on record as “better efficacy than other mono-substituted compounds”. In addition, at σ1 receptor, the affinity corresponds to a Ki of 4 ± 1.2 nM and the “Selectivity (Ki σ2/Ki σ1)” value is recorded as 9.5. For the same compound, the affinity on σ2 receptor, expressed as Ki, was 38 ± 2 nM.
